Results as given in ChEMBL document CHEMBL3045446, “In vitro antimicrobial and antimycobacterial activity of some chalcones and their derivatives” (2013).
Converted amounts (≈) assume the structure as drawn.

Experiments:
Type in all cases: functional
Aspergillus fumigatus [1] = experiment: Antimicrobial activity against Aspergillus fumigatus MTCC 343 assessed as diameter of growth inhibition zone after 48 hr
Escherichia coli [2] = experiment: Antimicrobial activity against Escherichia coli MTCC 739 assessed as diameter of growth inhibition zone after 24 hr
Bacillus cereus [3] = experiment: Antimicrobial activity against Bacillus cereus MTCC 430 assessed as growth inhibition after 24 hr by agar streak dilution method; conditions: MTCC 430, 24 h
Bacillus cereus [4] = experiment: Antimicrobial activity against Bacillus cereus MTCC 430 assessed as diameter of growth inhibition zone after 24 hr
Pseudomonas aeruginosa [5] = experiment: Antimicrobial activity against Pseudomonas aeruginosa MTCC 741 assessed as diameter of growth inhibition zone after 24 hr
Aspergillus fumigatus [6] = experiment: Antimicrobial activity against Aspergillus fumigatus MTCC 343 assessed as growth inhibition after 48 hr by agar streak dilution method; conditions: MTCC 343, 48 h
Aspergillus niger [7] = experiment: Antimicrobial activity against Aspergillus niger MTCC 282 assessed as growth inhibition after 48 hr by agar streak dilution method; conditions: MTCC 282, 48 h
Salmonella typhi [8] = experiment: Antimicrobial activity against Salmonella enterica subsp. enterica serovar Typhi MTCC 733 assessed as diameter of growth inhibition zone after 24 hr
Proteus vulgaris [9] = experiment: Antimicrobial activity against Proteus vulgaris MTCC 1771 assessed as growth inhibition after 24 hr by agar streak dilution method; conditions: MTCC 1771, 24 h
Candida albicans [10] = experiment: Antimicrobial activity against Candida albicans MTCC 183 assessed as growth inhibition after 48 hr by agar streak dilution method; conditions: MTCC 183, 48 h
Aspergillus clavatus [11] = experiment: Antimicrobial activity against Aspergillus clavatus MTCC 1323 assessed as diameter of growth inhibition zone after 48 hr
Candida albicans [12] = experiment: Antimicrobial activity against Candida albicans MTCC 183 assessed as diameter of growth inhibition zone after 48 hr
Aspergillus niger [13] = experiment: Antimicrobial activity against Aspergillus niger MTCC 282 assessed as diameter of growth inhibition zone after 48 hr
Klebsiella pneumoniae [14] = experiment: Antimicrobial activity against Klebsiella pneumoniae MTCC 109 assessed as growth inhibition after 24 hr by agar streak dilution method; conditions: MTCC 109, 24 h
Shigella flexneri [15] = experiment: Antimicrobial activity against Shigella flexneri MTCC1457 assessed as growth inhibition after 24 hr by agar streak dilution method; conditions: MTCC1457, 24 h
Escherichia coli [16] = experiment: Antimicrobial activity against Escherichia coli MTCC 739 assessed as growth inhibition after 24 hr by agar streak dilution method; conditions: MTCC 739, 24 h
Klebsiella pneumoniae [17] = experiment: Antimicrobial activity against Klebsiella pneumoniae MTCC 109 assessed as diameter of growth inhibition zone after 24 hr
Staphylococcus aureus [18] = experiment: Antimicrobial activity against Staphylococcus aureus MTCC 96 assessed as growth inhibition after 24 hr by agar streak dilution method; conditions: MTCC 96, 24 h
Salmonella typhi [19] = experiment: Antimicrobial activity against Salmonella enterica subsp. enterica serovar Typhi MTCC 733 assessed as growth inhibition after 24 hr by agar streak dilution method; conditions: MTCC 733, 24 h
Pseudomonas aeruginosa [20] = experiment: Antimicrobial activity against Pseudomonas aeruginosa MTCC 741 assessed as growth inhibition after 24 hr by agar streak dilution method; conditions: MTCC 741, 24 h
[21] = tested on: Mycobacterium tuberculosis; experiment: Antituberculosis activity against Mycobacterium tuberculosis H37Rv assessed as growth inhibition after 12 to 28 days by L-J MIC method; conditions: for MIC: Mycobacterium tuberculosis, H37Rv
Staphylococcus aureus [22] = experiment: Antimicrobial activity against Staphylococcus aureus MTCC 96 assessed as diameter of growth inhibition zone after 24 hr
Aspergillus clavatus [23] = experiment: Antimicrobial activity against Aspergillus clavatus MTCC 1323 assessed as growth inhibition after 48 hr by agar streak dilution method; conditions: MTCC 1323, 48 h
Proteus vulgaris [24] = experiment: Antimicrobial activity against Proteus vulgaris MTCC 1771 assessed as diameter of growth inhibition zone after 24 hr
Shigella flexneri [25] = experiment: Antimicrobial activity against Shigella flexneri MTCC1457 assessed as diameter of growth inhibition zone after 24 hr

SMILES	diameter of the inhibition zone (DIZ) (Aspergillus fumigatus [1]) [mm]	diameter of the inhibition zone (DIZ) (Escherichia coli [2]) [mm]	MIC (Bacillus cereus [3]) [µg/mL]	diameter of the inhibition zone (DIZ) (Bacillus cereus [4]) [mm]	diameter of the inhibition zone (DIZ) (Pseudomonas aeruginosa [5]) [mm]	MIC (Aspergillus fumigatus [6]) [µg/mL]	MIC (Aspergillus niger [7]) [µg/mL]	diameter of the inhibition zone (DIZ) (Salmonella typhi [8]) [mm]	MIC (Proteus vulgaris [9]) [µg/mL]	MIC (Candida albicans [10]) [µg/mL]	diameter of the inhibition zone (DIZ) (Aspergillus clavatus [11]) [mm]	diameter of the inhibition zone (DIZ) (Candida albicans [12]) [mm]	diameter of the inhibition zone (DIZ) (Aspergillus niger [13]) [mm]	MIC (Klebsiella pneumoniae [14]) [µg/mL]	MIC (Shigella flexneri [15]) [µg/mL]	MIC (Escherichia coli [16]) [µg/mL]	diameter of the inhibition zone (DIZ) (Klebsiella pneumoniae [17]) [mm]	MIC (Staphylococcus aureus [18]) [µg/mL]	MIC (Salmonella typhi [19]) [µg/mL]	MIC (Pseudomonas aeruginosa [20]) [µg/mL]	other results
Nc1nc(-c2ccc(F)cc2)cc(-c2ccc(Nc3cc(=O)oc4ccccc34)cc2)n1	27	25	12.5 (≈ 29.5 µM)	23	24	6.25 (≈ 14.7 µM)	12.5 (≈ 29.5 µM)	23	6.25 (≈ 14.7 µM)	25 (≈ 58.9 µM)	26	20	22	3.12 (≈ 7.35 µM)	12.5 (≈ 29.5 µM)	6.25 (≈ 14.7 µM)	28	12.5 (≈ 29.5 µM)	12.5 (≈ 29.5 µM)	12.5 (≈ 29.5 µM)	growth inhibition (GI) [21]: 99%; MIC [21]: 62.5 µg/mL (≈ 147 µM); diameter of the inhibition zone (DIZ) (Staphylococcus aureus [22]): 24 mm; MIC (Aspergillus clavatus [23]): 6.25 µg/mL (≈ 14.7 µM); diameter of the inhibition zone (DIZ) (Proteus vulgaris [24]): 25 mm; diameter of the inhibition zone (DIZ) (Shigella flexneri [25]): 21 mm
Cc1ccc(-c2cc(-c3ccc(Nc4cc(=O)oc5ccccc45)cc3)nc(N)n2)cc1	18	15	50 (≈ 119 µM)	19	19	50 (≈ 119 µM)	25 (≈ 59.5 µM)	18	25 (≈ 59.5 µM)	50 (≈ 119 µM)	16	16	21	100 (≈ 238 µM)	25 (≈ 59.5 µM)	100 (≈ 238 µM)	16	50 (≈ 119 µM)	50 (≈ 119 µM)	50 (≈ 119 µM)	growth inhibition (GI) [21]: 98%; MIC [21]: 200 µg/mL (≈ 476 µM); diameter of the inhibition zone (DIZ) (Staphylococcus aureus [22]): 18 mm; MIC (Aspergillus clavatus [23]): 100 µg/mL (≈ 238 µM); diameter of the inhibition zone (DIZ) (Proteus vulgaris [24]): 21 mm; diameter of the inhibition zone (DIZ) (Shigella flexneri [25]): 22 mm
N#Cc1c(-c2ccc(Cl)cc2)cc(-c2ccc(Nc3cc(=O)oc4ccccc34)cc2)nc1N	24	21	25 (≈ 53.8 µM)	21	19	12.5 (≈ 26.9 µM)	25 (≈ 53.8 µM)	24	6.25 (≈ 13.4 µM)	6.25 (≈ 13.4 µM)	21	26	20	6.25 (≈ 13.4 µM)	12.5 (≈ 26.9 µM)	25 (≈ 53.8 µM)	25	12.5 (≈ 26.9 µM)	12.5 (≈ 26.9 µM)	50 (≈ 108 µM)	growth inhibition (GI) [21]: 98%; MIC [21]: 100 µg/mL (≈ 215 µM); diameter of the inhibition zone (DIZ) (Staphylococcus aureus [22]): 24 mm; MIC (Aspergillus clavatus [23]): 25 µg/mL (≈ 53.8 µM); diameter of the inhibition zone (DIZ) (Proteus vulgaris [24]): 26 mm; diameter of the inhibition zone (DIZ) (Shigella flexneri [25]): 23 mm
CC(=O)N1N=C(c2ccc(Nc3cc(=O)oc4ccccc34)cc2)CC1c1ccccc1O (stereo unspecified)	18	16	100 (≈ 228 µM)	16	16	25 (≈ 56.9 µM)	50 (≈ 114 µM)	16	100 (≈ 228 µM)	100 (≈ 228 µM)	20	16	19	50 (≈ 114 µM)	50 (≈ 114 µM)	100 (≈ 228 µM)	20	100 (≈ 228 µM)	100 (≈ 228 µM)	100 (≈ 228 µM)	growth inhibition (GI) [21]: 98%; MIC [21]: 250 µg/mL (≈ 569 µM); diameter of the inhibition zone (DIZ) (Staphylococcus aureus [22]): 17 mm; MIC (Aspergillus clavatus [23]): 50 µg/mL (≈ 114 µM); diameter of the inhibition zone (DIZ) (Proteus vulgaris [24]): 17 mm; diameter of the inhibition zone (DIZ) (Shigella flexneri [25]): 18 mm
COc1ccc(-c2cc(-c3ccc(Nc4cc(=O)oc5ccccc45)cc3)nc(N)c2C#N)cc1	21	28	6.25 (≈ 13.6 µM)	27	25	12.5 (≈ 27.1 µM)	12.5 (≈ 27.1 µM)	22	6.25 (≈ 13.6 µM)	12.5 (≈ 27.1 µM)	25	25	25	12.5 (≈ 27.1 µM)	12.5 (≈ 27.1 µM)	3.12 (≈ 6.78 µM)	22	6.25 (≈ 13.6 µM)	12.5 (≈ 27.1 µM)	6.25 (≈ 13.6 µM)	growth inhibition (GI) [21]: 96%; MIC [21]: 62.5 µg/mL (≈ 136 µM); diameter of the inhibition zone (DIZ) (Staphylococcus aureus [22]): 27 mm; MIC (Aspergillus clavatus [23]): 6.25 µg/mL (≈ 13.6 µM); diameter of the inhibition zone (DIZ) (Proteus vulgaris [24]): 26 mm; diameter of the inhibition zone (DIZ) (Shigella flexneri [25]): 24 mm
COc1ccc(/C=C/C(=O)c2ccc(Nc3cc(=O)oc4ccccc34)cc2)cc1OC	17	22	50 (≈ 117 µM)	19	18	50 (≈ 117 µM)	25 (≈ 58.5 µM)	16	50 (≈ 117 µM)	100 (≈ 234 µM)	16	17	21	100 (≈ 234 µM)	25 (≈ 58.5 µM)	25 (≈ 58.5 µM)	17	25 (≈ 58.5 µM)	100 (≈ 234 µM)	50 (≈ 117 µM)	growth inhibition (GI) [21]: 97%; MIC [21]: 200 µg/mL (≈ 468 µM); diameter of the inhibition zone (DIZ) (Staphylococcus aureus [22]): 21 mm; MIC (Aspergillus clavatus [23]): 100 µg/mL (≈ 234 µM); diameter of the inhibition zone (DIZ) (Proteus vulgaris [24]): 19 mm; diameter of the inhibition zone (DIZ) (Shigella flexneri [25]): 20 mm
